Entries after “also recorded” stand apart in the source; their conditions may differ.
What was measured:
Assay type in all cases: cell-based
[1] = tested on: HeLa cells; assay: small-scale killing of dividing HeLa cells; conditions: dose of 20 (unit not given)
Text: (§1) To determine whether the identified compounds would have the same effect in mammalian cells, we used HeLa cells to test the effects of these compounds in a small-scale experiment. […] These two compounds were named INH1 and INH2 (INH1, MW: 308.41; also referred to herein as IBT 13131; see FIG. 16; INH2, MW 382.49; also referred to herein as IBT 14664; see FIG. 16).

[2] = tested on: Nek2 phosphorylation of Hec1 at S165; assay: Western blot of Hec1 S165 phosphorylation (anti-A439) in treated HeLa cells; conditions: 20 μM, 36 hours
Protocol: HeLa cells (lane 1) were treated with 0.08% DMSO (lane 2), 20 μM of INH1 (lane 3), INH2 (lane 4) or nocodazole (lane 5) for 36 hours before cells were harvested for immunoblotting with anti-Hec1, mAb9G3, for total Hec1 protein or anti-A439 for the phosphorylated Hec1 at S165 (pHEC1). Nek2 phosphorylation of Hec1 is undetectable in INH1 and INH2 treated cells (lanes 3 and 4).
(§2) We performed a co-immunoprecipitation assay using cells treated with INH1 or INH2 to test whether these compounds disrupt the interaction between Hec1 and Nek2. […] Similarly, we examined whether Nek2 phosphorylation of Hec1 is diminished in the cells treated with these drugs by Western blotting with […], which recognizes specifically the phosphorylated S165 of Hec1.

[3] = tested on: HeLa cells; assay: colony formation assay in HeLa cells; conditions: 12 days treatment, INH1 compared with INH2
Protocol: FIG. 12. Effects of INH1 and INH2 on colony formation of HeLa cells. Exponentially grown cells were seeded at 800 cells per 10-cm dish for 24 h and treated with indicated concentrations of INH1 (MW: 308.41; also referred to herein as IBT 13131; see FIG. 17), INH2 (MW 382.49; also referred to herein as IBT 14664; see FIG. 17), or control (DMSO less than 0.1%) for 12 days. The colonies were fixed and stained with methylene blue and counted. The values were averaged from a triplicate set of experiments, and error bars represent the SEM.
as §1

[4] = biological target: T1, interaction between Hec1 and Nek2 (Homo sapiens, UniProt O14777); assay: co-immunoprecipitation of Nek2 with Hec1 from treated HeLa cells; conditions: 10 and 20 μM, 24 hours
T1 construct: endogenous in cells; host or cells: HeLa cells
T1 sequence (O14777 1-642): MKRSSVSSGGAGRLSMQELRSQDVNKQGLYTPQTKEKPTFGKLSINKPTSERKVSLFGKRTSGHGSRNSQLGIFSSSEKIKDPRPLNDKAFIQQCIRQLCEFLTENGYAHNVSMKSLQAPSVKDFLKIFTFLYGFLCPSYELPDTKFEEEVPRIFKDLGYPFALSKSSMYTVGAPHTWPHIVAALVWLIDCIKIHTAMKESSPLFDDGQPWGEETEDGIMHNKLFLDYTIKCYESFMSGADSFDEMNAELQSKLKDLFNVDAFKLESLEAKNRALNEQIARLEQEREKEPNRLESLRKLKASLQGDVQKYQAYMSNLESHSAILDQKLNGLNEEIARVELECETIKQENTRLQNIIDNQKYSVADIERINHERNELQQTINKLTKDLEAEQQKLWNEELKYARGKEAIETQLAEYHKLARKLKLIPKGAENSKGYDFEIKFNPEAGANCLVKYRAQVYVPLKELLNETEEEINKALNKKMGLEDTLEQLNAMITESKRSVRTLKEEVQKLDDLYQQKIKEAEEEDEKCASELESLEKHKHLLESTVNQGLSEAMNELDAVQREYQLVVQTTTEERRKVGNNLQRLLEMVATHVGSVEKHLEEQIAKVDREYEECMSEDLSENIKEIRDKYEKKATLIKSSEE
Protocol: FIG. 13A. Dissociation of Hec1 and Nek2 in INH1I-treated cells. HeLa cells were grown in log-phase and treated with 0.08% DMSO or with the indicated concentration of INH1 for 24 hours. Cells were harvested for immunoprecipitation with the anti-Hec1 antibody mAb 9G3. The immunoprecipitates were analyzed by western blot with either mAb 9G3 or anti-Nek2 antibodies. […] Fractions of lysates were taken for straight western blot with anti-Rad50 antibodies as a loading control.
as §2

[5] = tested on: HeLa cells; assay: microscopy of H2B-GFP labeled HeLa cells (chromosome segregation); conditions: 10 mM of INH1 (FIG. 14A)
Protocol: FIG. 14A. Micrographic pictures of H2B-GFP labeled HeLa cells treated with DMSO (Mock) or 10 mM of INH1. White arrows indicate lagging chromosomes during M phase.

[6] = tested on: HeLa cells; assay: flow cytometric (FACS) analysis of treated HeLa cells; conditions: 5 or 10 μM, 72 hrs
Protocol: FIG. 14B. Flow cytometric analysis of INH1 treated HeLa cells. Exponentially grown HeLa cells were seeded at 5×10^5 cells per 10-cm dish for 24 hrs and then treated with DMSO (control) or 5 or 10 μM of INH1 for 72 hrs. Cells were harvested and fixed in 70% ethanol for flow cytometry after staining with propidium iodide. Data represent one of three independent experiments.

[7] = tested on: RB-reconstituted Saos2 cells (SR5); assay: cell killing, trypan blue exclusion, RB-reconstituted Saos2 cells; conditions: 10 μM, 60 hours
Protocol: (§3) FIG. 15. Differential effect of INH1 in Rb positive and negative osteosarcoma Saos2 cells. Cells grown in log-phase were either untreated or treated with 0.08% DMSO or INH1 at the indicated concentrations for 60 hours. Surviving cells were counted by trypan blue exclusion and expressed as a percentage of the control. SR5 is a Rb reconstituted Saos-2 cell line. The values were the average of a triplicate set of experiments, with error bars representing the SEM.

[8] = tested on: parental (RB-negative) Saos2 cells; assay: cell killing, trypan blue exclusion, parental Saos2 cells; conditions: 10 μM, 60 hours
Protocol: as §3

Row | Compound | activity in killing dividing cells [1] | Nek2 phosphorylation of Hec1 (S165) [2] | killing activity by colony formation [3] | Nek2 co-precipitated with anti-Hec1 antibodies [4] | Nek2 co-precipitated with anti-Hec1 antibodies ([4]; listed as INH 1) | chromosome segregation phenotype [5] | cell death by FACS analysis [6] | cells killed [7] | cells killed [8]
1 | INH2 | significant activity | abolished; also recorded: undetectable |  |  |  |  |  |  | 
2 | Cc1ccc(-c2csc(NC(=O)c3ccccc3)n2)c(C)c1 [INH1] | significant activity | abolished; also recorded: undetectable | significant higher killing activity | very little or no Nek2 protein | Nek2 failed to be co-immunoprecipitated with Hec1 | generated chromosome missegregations | led to cell death | < 5% | more than 50%

— patent US8252520B2, “Methods and compounds for inhibiting Hec1 activity for the treatment of proliferative diseases” (Taivex Therapeutics Corporation, priority 2002, dated 2012)
